The record followed here is patent US20230346954A1, “N-1 BRANCHED IMIDAZOQUINOLINES, CONJUGATES THEREOF, AND METHODS” (3M INNOVATIVE PROPERTIES COMPANY, priority 2020, published 2023).

Format in all cases: cell-based
The test system of test [1] is Human peripheral blood mononuclear cells (PBMC). The test is described as follows: Cytokine induction in human cells (PBMC). As to conditions: 21-24 h, lowest concentration giving at least 2x negative control; for MEC to Induce Cytokine: IFN-alpha: ELISA; for MEC to Induce Cytokine: IFN-gamma / MEC to Induce Cytokine: TNF-alpha: multiplex bead assay. Here is the method: Whole blood was obtained from healthy human donors and collected by venipuncture into vacutainer tubes or syringes containing EDTA. Human peripheral blood mononuclear cells (PBMC) were purified from the whole blood by density gradient centrifugation. Histopaque 1077 (15 mL, Sigma, St. Louis, MO) was transferred to 6×50 mL sterile polypropylene conical tubes. The Histopaque was overlayed with 15-25 mL of blood diluted 1:2 in Hank's Balanced Salts Solution (HBSS) (Gibco, Life Technologies, Grand Island, NY). The tubes were then centrifuged at 1370 revolutions per minute (rpm) for 30 min at 20° C., with no brake (400×g, GH 3.8A Rotor).
The interface (buffy coat) containing the PBMC was collected and placed in a new sterile 50 mL conical polypropylene centrifuge tube. The PBMC were mixed with an equal volume of HBSS (about 20 mL from the interface and about 20 mL of HBSS), and then centrifuged at 1090 rpm, 10 min, 20° C., with brake (270×g, GH 3.8A Rotor). After completing centrifugation, the cells were resuspended in 2-3 mL ACK Red blood cell lysis buffer (ammonium chloride potassium solution, Gibco, Life Technologies) and incubated for 2-5 min at 20° C. Next, HBSS (40 mL) was added to the cells, and the sample was centrifuged at 270×g for 10 min at 20° C. The supernatant was decanted, and the cell pellet was resuspended in 5 mL AIM V Medium (Gibco, Life Technologies). Cell aggregates and debris were removed by filtering the cell solution through a BD Falcon 70 micron nylon cell strainer (BD Biosciences, San Jose, CA).
The number of viable cells was determined by counting with a Miltenyi FACS instrument (Miltenyi Biotec Inc., San Diego, CA) or by using a hemacytometer. For determining cell viability with a hemacytometer, the cells were diluted 1/10 in 0.4% trypan blue and HBSS (specifically, 50 microliter of trypan blue+40 microliter of HBSS+10 microliter of cell solution were added to a microfuge tube and mixed). Ten microliters of the diluted cells were then applied to the hemacytometer, and the number of viable PBMC were determined by microscopy.
The PBMC sample was then resuspended in 96-well plates at a concentration of 8×10^5 cells/well in 0.1 mL of AIM-V medium. Each compound was solubilized in dimethyl sulfoxide (DMSO) to create a 3 mM stock solution. The stock solution was then further diluted with AIM-V medium to prepare the serial dilutions. The diluted compound (100 microliters) was then transferred to the PBMCs to produce testing sets with final compound concentrations of 30, 10, 3.3, 1.1, 0.37, 0.12, 0.04, 0.01 micromolar. The plates also had both positive and negative controls. The negative control wells contained only AIM-V medium with no example compound. The positive control wells contained a control set of imiquimod serially diluted to concentrations of 30, 10, 3.3, 1.1, 0.37, 0.12, 0.04, 0.01 micromolar. The concentrations used in the control set were selected to match the concentrations used in the testing set. The plates were then cultured at 37° C./5% CO2 for 21-24 h. Cell-free supernatants were harvested by centrifuging the 96-well plates at 2100 rpm, 23° C. for 10 min. Approximately 160 microliters of the supernatant was then stored in a NUNC 96-well plate, covered with the compression cap and stored at −80° C. until the cytokine analysis was done.
IFN-alpha cytokine levels (picograms/mL) were measured by ELISA (human IFN-alpha, pan specific, Mabtech, Cincinnati, OH). IFN-gamma and TNF-alpha levels (picograms/mL) were measured by multiplex bead assay (magnetic beads, R & D Systems, Minneapolis, MN) according to the manufacturer's instructions.
Specifically, the minimum effective concentration of each compound (micromolar) was determined as the lowest concentration of the compound that induced a measured cytokine response at a level ([…]) that was at least 2× greater than that observed with the negative control wells.

In the next test the target is T1, human TLR8 (Homo sapiens, UniProt Q9NR97).
T1 construct: host or cells: HEK293 (HEK-BLUE-hTLR8)
T1 sequence (Q9NR97 27-1041): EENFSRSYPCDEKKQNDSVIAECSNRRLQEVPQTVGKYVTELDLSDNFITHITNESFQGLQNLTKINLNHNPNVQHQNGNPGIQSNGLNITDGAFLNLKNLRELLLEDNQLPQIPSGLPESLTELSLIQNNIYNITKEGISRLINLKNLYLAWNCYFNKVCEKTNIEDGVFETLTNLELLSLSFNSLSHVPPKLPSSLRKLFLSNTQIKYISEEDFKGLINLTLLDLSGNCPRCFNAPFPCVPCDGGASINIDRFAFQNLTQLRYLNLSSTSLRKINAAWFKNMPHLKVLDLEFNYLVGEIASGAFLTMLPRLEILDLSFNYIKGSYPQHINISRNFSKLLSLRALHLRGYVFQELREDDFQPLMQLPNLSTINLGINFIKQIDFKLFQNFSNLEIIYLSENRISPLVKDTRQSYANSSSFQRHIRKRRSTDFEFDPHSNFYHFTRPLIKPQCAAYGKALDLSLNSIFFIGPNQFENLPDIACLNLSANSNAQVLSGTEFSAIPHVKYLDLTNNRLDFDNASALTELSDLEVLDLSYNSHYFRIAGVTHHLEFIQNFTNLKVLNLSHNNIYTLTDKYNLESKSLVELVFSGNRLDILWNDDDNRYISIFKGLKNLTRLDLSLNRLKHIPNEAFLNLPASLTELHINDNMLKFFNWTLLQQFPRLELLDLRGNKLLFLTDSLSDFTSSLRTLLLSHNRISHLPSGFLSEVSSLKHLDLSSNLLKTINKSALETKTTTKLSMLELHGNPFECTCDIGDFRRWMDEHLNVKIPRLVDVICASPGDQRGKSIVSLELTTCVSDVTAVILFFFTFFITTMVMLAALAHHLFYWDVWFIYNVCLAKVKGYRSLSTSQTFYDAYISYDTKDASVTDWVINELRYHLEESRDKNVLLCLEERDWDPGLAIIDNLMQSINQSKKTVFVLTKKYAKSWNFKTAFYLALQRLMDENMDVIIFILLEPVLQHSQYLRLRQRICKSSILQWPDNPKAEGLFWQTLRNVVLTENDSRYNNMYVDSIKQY
The test can be described thus: TLR activation, HEK-BLUE-hTLR8 SEAP reporter cells. The following applies: HEK-BLUE-hTLR8, 16-20 h; SEAP response at least 2x vehicle control. Here is the method:
(§1) HEK-BLUE-hTLR7 or hTLR8 reporter cells were obtained from InvivoGen, San Diego, CA. According to the manufacturer's description, these reporter cells were prepared by co-transfection of HEK293 cells with an inducible secreted embryonic alkaline phosphatase (SEAP) reporter gene and either the human TLR7 or TLR8 gene. The SEAP reporter gene was placed under the control of an IFN-β minimal promoter fused to five NF-κB and AP-1-binding sites. In the presence of a TLR ligand, activation of NF-κB and AP-1 occurs, resulting in a corresponding increase in SEAP levels. […]
(§2) For each compound, hTLR7, hTLR8, and their respective null control HEK cells were screened. […] Cell culture supernatants containing the SEAP reporter were collected after an incubation period of 16-20 h in a cell culture incubator (37° C. and 5% CO2), and either analyzed immediately or stored at −80° C. SEAP levels were measured using the colorimetric enzyme assay (QUANTI-BLUE (InvivoGen) according to manufacturer's instructions.
(§3) Specifically, the minimum effective concentration of each compound (micromolar) was determined as the lowest concentration of the compound that produced a SEAP expression response at least 2× greater than that observed with the vehicle control wells.

Another test concerns the target T2, human TLR7 (Homo sapiens, UniProt Q9NYK1).
T2 construct: host or cells: HEK293 (HEK-BLUE-hTLR7)
T2 sequence (Q9NYK1 27-1049): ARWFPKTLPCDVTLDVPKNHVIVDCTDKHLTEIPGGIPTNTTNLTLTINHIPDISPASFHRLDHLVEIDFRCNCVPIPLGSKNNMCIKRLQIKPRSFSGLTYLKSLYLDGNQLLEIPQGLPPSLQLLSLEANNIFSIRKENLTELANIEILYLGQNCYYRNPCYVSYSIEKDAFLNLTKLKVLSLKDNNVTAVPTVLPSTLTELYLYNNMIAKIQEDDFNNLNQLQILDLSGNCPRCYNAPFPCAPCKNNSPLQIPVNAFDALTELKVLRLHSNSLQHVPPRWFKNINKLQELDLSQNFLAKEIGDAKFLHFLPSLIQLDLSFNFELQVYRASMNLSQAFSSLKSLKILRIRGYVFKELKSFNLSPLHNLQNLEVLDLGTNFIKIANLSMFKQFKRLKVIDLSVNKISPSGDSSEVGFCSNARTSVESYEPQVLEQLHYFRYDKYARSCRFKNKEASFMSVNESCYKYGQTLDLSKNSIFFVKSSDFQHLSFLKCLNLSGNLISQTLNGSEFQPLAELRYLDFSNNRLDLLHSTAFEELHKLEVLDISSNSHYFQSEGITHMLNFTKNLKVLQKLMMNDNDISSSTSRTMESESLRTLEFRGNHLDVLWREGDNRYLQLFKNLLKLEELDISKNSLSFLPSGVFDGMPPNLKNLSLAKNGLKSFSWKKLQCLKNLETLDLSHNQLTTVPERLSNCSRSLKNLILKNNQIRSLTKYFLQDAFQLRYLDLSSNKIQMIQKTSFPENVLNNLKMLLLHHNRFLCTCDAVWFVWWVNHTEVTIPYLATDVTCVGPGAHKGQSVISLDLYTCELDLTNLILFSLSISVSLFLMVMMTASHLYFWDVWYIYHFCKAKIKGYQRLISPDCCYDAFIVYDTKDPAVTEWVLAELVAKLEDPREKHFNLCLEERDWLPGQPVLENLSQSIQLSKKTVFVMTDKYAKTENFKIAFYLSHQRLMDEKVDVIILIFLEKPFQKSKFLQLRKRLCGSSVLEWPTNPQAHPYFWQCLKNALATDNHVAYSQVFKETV
The test is described as follows: TLR activation, HEK-BLUE-hTLR7 SEAP reporter cells. The following applies: HEK-BLUE-hTLR7, 16-20 h; SEAP response at least 2x vehicle control. The procedure: as §1, §2, §3

Some results are limits rather than exact numbers.

Take `CCOC[C@H](Cc1ccc(OCCO)cc1)n1cnc2c(N)nc3ccccc3c21` [Example 1, (S)-2-(4-(2-(4-amino-1H-imidazo[4,5-c]quinolin-1-yl)-3-ethoxypropyl)phenoxy)ethan-1-ol]: in test [1], the “MEC to Induce Cytokine: IFN-alpha” value was at most 0.01 µM, the “MEC to Induce Cytokine: IFN-gamma” value is at most 0.01 µM and the “MEC to Induce Cytokine: TNF-alpha” value was at most 0.01 µM. For the same compound, on human TLR8, the “MEC to Produce TLR Activation: TLR 8” value was found to be 1.1 µM. Besides, the “MEC to Produce TLR Activation: TLR 7” value on human TLR7 is at most 0.01 µM.

Consider `CCOC[C@H](Cc1ccc(OCCN)cc1)n1cnc2c(N)nc3ccccc3c21` [Example 2, (S)-1-(1-(4-(2-aminoethoxy)phenyl)-3-ethoxypropan-2-yl)-1H-imidazo[4,5-c]quinolin-4-amine], for which, in test [1], the “MEC to Induce Cytokine: IFN-alpha” value was at most 0.01 µM, the “MEC to Induce Cytokine: IFN-gamma” value was at most 0.01 µM and the “MEC to Induce Cytokine: TNF-alpha” value is at most 0.01 µM. In addition, the “MEC to Produce TLR Activation: TLR 8” value at human TLR8 came out at 1.1 µM. Moreover, the “MEC to Produce TLR Activation: TLR 7” value at human TLR7 was at most 0.01 µM.
